Here are results for one compound from patent publication US9708359B2, “Pyrrolopyrimidine nucleosides and analogs thereof” (Chimerix, Inc., priority 2015, dated 2017).

Data set [1] is described as follows: Parallel cytotoxicity assay in 293TT cells. It is filed as cell-based. Conditions: human, parallel to JCV assay. The protocol:
(§1) Every antiviral assay included a parallel cytotoxicity assay with the same cells used for each virus, the same cell number, the same drug concentrations, and the same incubation times to provide the same drug exposure. To ensure that the cytotoxicity of all compounds could be compared directly, a standard neutral red uptake cytotoxicity assay for all compounds in confluent HFF cells with a 7 d incubation period was performed.

Data set [2] in a line: Parallel cytotoxicity assay in A549 cells. Conditions: human, parallel to AdV assay. It is filed as cell-based. The protocol: as §1
The primary screen was a cytopathic effect (CPE) reduction assay. Briefly, cultures of cells were infected with virus in the presence of test compounds and incubated for 4-7 days (depending on the specific virus/cells). […] Therefore, antiviral effect, or cytoprotection, was observed when compounds prevent virus replication. […] Cytoprotection and compound cytotoxicity were assessed by MTS dye reduction. The percent reduction in viral CPE (antiviral activity) and percent cell viability (cytotoxicity) were determined and reported.
The primary screen was a cytopathic effect (CPE) reduction assay. […] Cytoprotection and compound cytotoxicity were assessed by MTS (CellTiter®96 Reagent, Promega, Madison Wis.) dye reduction. The percent reduction in viral CPE (antiviral activity) and percent cell viability (cytotoxicity) were determined and reported.

For another data set, the system named is VEEV. As to the kind of experiment: microbe, parasite or virus in culture. It is filed as cell-based. Conditions: Venezuelan equine encephalitis virus, Vero 76.
Another data set has as its system BKV. As to the kind of experiment: qPCR assay for BKV. The following applies: Betapolyomavirus hominis, HFF cells. The format is cell-based, BK virus. The protocol: qPCR Assays for BKV and JCV:
Primary assays for BK virus were performed in 96-well plates containing monolayers of HFF cells. Compound dilutions were prepared in plates containing cells which were subsequently infected at with the Gardner strain of BK virus. After a 7 d incubation, total DNA was prepared with a purification kit and genome copy number was quantified by real time PCR. Compounds that were positive in this assay were confirmed in a similar assay in 96-well plates with the compounds added 1 h […] to identify compounds that inhibit early stages of replication including adsorption and penetration. Genome copy number was determined by methods described above.
Primary assays for BK virus were performed in 96-well plates containing monolayers of HFF cells. Compound dilutions were prepared in plates containing cells which were subsequently infected at with the Gardner strain of BK virus. After a 7 d incubation, total DNA was prepared with a Wizard SV 96 well purification kit and genome copy number was quantified by real time PCR using the primers 5′-[…]-3′ (SEQ ID No. 8) , 5′-[…]-3′ (SEQ ID No. 9) and probe 5-6-FAM […]-3′ (SEQ ID No. 10) . Plasmid pMP526 served as the DNA standard for quantitation purposes. […] Genome copy number was determined by methods described above.

The next data set has as its system HCMV. As to the kind of experiment: Plaque-reduction assay for HCMV. It is filed as cell-based, human cytomegalovirus. The following applies: Human betaherpesvirus 5, HFF cells. The protocol:
Plaque-Reduction Assays for HSV-1, HSV-2, VZV and HCMV:
Monolayers of cells were prepared in six-well plates and incubated at to allow the cells to reach confluency. Media was then aspirated from the wells and of virus was added to each of three wells to yield 20-30 plaques in each well. The virus was allowed to adsorb to the cells for 1 h and the plates were rocked gently every 15 min to redistribute the media. Compounds were diluted in maintenance cell culture media consisting of MEM with Earl's salts supplemented with 2% FBS, L-glutamine, penicillin, and gentamycin. Solutions were added to duplicate wells and the plates were incubated for various times, depending on the virus used. The plaque-reduction assay with HSV-1 strain F was performed in a similar manner but with Vero cells infected one day after plating. For HSV-1 and -2, the monolayers were stained with 1% crystal violet in 20% methanol and the unbound dye removed by washing with dH2O. For assays with HCMV and VZV, the cell monolayer was stained with 1% Neutral Red solution for 4 h then the stain was aspirated and the cells were washed with PBS. For all assays, plaques were enumerated using a stereomicroscope and the concentration of compound that reduced plaque formation by 50% (EC50) was interpolated from the experimental data. […]

Another data set in a line: in vitro. Conditions: dog.
Data set [3] can be described thus: Solubility in water (rework study). The format is physicochemical. The protocol:
A brief rework study for compound 1, (containing 1.6% benzoic acid per AUC, HPLC) was executed in 10 vol of water (1 g in 10 mL):
All three experiments gave compound 1 with less than 0.1% benzoic acid (UAC, HPLC). The slurries were fluid, were easily stirred and filtration was fast. […] Without wishing to be bound by theory, a loss of NMT than 1% is expected (solubility 1 mg/mL). HPLC data for compound 1 were obtained with a method suitable for polar compounds using a Zorbax Eclipse Plus C18 column (water/ACN/TFA, 97.5/2.5/0.05). This is the same column used for steps 1 and 2.

For the next data set, the system named is Flu (H1N1). The data set can be described thus: microbe, parasite or virus in culture. The format is cell-based. Conditions: Influenza A virus, MDCK cells.
In the next data set the test system is HHV-8. As to the kind of experiment: cells. It is filed as cell-based, human herpes virus 8. The following applies: Homo sapiens, BCBL1; HHV-8, BCBL-1 cells.

≈ marks a conversion by molar mass, not a printed value.

On to `Cc1nc(N)c2c(C(N)=O)cn([C@@H]3O[C@H](CO)[C@@H](O)[C@H]3O)c2n1` [Compound 1, 4-amino-7-((2R,3R,4S,5R)-3,4-dihydroxy-5-(hydroxymethyl)tetrahydrofuran-2-yl)-2-methyl-7H-pyrrolo[2,3-d]pyrimidine-5-carboxamide], for which the CC50 in data set [1] is > 60 µM; in data set [2], > 100 µM; in the data set “in vitro” it was > 100 µM. Besides, the EC50 is > 100 µM in the data set on VEEV; > 60 µM in the data set with BKV; > 60 µM in the data set with HCMV; > 100 µM in the data set on Flu (H1N1); > 12 µM with HHV-8. This compound also displayed a solubility in data set [3] of 1000 µg/mL (≈ 3.09 mM).
